Consider 19 compounds from US20240059711A1, “Cereblon Ligands and Uses Thereof” (REGENTS OF THE UNIVERSITY OF MICHIGAN, priority 2022, published 2024).

Bounds are passed on as bounds.

ER, sequence (P03372 whole entry): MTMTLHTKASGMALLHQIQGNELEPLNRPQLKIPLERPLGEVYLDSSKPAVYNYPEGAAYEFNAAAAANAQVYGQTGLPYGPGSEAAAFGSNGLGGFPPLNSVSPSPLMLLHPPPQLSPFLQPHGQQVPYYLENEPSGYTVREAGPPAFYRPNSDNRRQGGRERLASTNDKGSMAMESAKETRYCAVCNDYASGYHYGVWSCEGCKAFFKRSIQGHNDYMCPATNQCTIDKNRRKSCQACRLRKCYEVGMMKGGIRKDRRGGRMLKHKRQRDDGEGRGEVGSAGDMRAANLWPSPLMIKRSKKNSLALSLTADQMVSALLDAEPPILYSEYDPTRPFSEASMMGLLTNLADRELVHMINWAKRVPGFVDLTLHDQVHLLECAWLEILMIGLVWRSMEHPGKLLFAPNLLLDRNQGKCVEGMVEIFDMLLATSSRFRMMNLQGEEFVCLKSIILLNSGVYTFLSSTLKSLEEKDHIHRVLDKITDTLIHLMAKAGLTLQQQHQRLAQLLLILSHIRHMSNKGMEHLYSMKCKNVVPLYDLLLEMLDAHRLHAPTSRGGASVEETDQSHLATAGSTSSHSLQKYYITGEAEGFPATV
GST-tagged wild-type human CRBN protein, sequence (Q96SW2 whole entry): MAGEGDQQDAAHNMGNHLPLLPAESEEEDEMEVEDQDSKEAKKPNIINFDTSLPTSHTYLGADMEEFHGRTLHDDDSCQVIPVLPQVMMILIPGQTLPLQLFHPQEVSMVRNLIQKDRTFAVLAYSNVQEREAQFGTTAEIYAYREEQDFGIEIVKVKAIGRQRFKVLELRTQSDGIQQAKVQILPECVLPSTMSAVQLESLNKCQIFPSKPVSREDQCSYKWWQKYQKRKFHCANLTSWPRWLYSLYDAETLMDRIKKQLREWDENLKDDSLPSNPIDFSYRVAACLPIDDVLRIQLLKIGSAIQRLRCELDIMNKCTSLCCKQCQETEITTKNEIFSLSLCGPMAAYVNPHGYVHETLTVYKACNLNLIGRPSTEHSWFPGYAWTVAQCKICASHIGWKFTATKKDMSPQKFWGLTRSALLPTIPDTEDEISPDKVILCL

One assay concerns the target GST-tagged wild-type human CRBN protein (Homo sapiens (Human), UniProt Q96SW2). The assay is described as follows: Cereblon binding assay (CRBN TR-FRET, Cisbio Cereblon Binding Kit). The following applies: XL665-labelled Thalidomide tracer, about 3 hours at room temperature. On the procedure:
The binding to cereblon (CRBN) was determined using the Cereblon Binding Kit (Cisbio, #64BDCRBNPEG) following the manufacturer's instruction. Briefly, serially diluted compounds were incubated with GST-tagged wild-type human CRBN protein, XL665-labelled Thalidomide and Europium Cryptate labelled GST antibody at room temperature for about 3 hours. Time Resolved Fluorescence Resonance Energy Transfer (TR-FRET) measurements were acquired on a CALRIOstar plate reader with MARS data analysis software (BMG Labtech), with the following settings: 665/10 nm and 620/10 nm emission, 60 μs delay and 400 μs integration. The TR-FRET ratio was taken as the 665/620 nm intensity ratio.
Take `O=C1CCC(N2C(=O)c3cc4c(cc3C2=O)O[C@@H](COCc2ccccc2)CO4)C(=O)N1` (stereo partly drawn) [Compound B13, (2S)-2-((benzyloxy)methyl)-7-(2,6-dioxopiperidin-3-yl)-2,3-dihydro-6H-[1,4]dioxino[2,3-f]isoindole-6,8(7H)-dione]: the IC50 was 3100 nM.

For the compound `O=C1CC[C@H](N2Cc3c(ccc4c3OCC(CO)O4)C2=O)C(=O)N1` (stereo in doubt) [Compound B2, (S)-3-((S)-3-(hydroxymethyl)-7-oxo-2,3,7,9-tetrahydro-8H-[1,4]dioxino[2,3-e]isoindol-8-yl)piperidine-2,6-dione], the IC50 was 410 nM.

As to `O=C1CCC(N2C(=O)c3cc4c(cc3C2=O)O[C@@H](COCc2ccccc2)CO4)C(=O)N1` (stereo partly drawn) [Compound B14, (2S)-2-((benzyloxy)methyl)-7-(2,6-dioxopiperidin-3-yl)-2,3-dihydro-6H-[1,4]dioxino[2,3-f]isoindole-6,8(7H)-dione], the concentration for half-maximal inhibition (IC50) is 5160 nM.

The compound `O=C1CCC(N2Cc3c(ccc4c3O[C@H](CO)CO4)C2=O)C(=O)N1` (stereo partly drawn) [Compound B8, 3-((R)-2-(hydroxymethyl)-7-oxo-2,3,7,9-tetrahydro-8H-[1,4]dioxino[2,3-e]isoindol-8-yl)piperidine-2,6-dione] yielded an IC50 of 1000 nM. On the same count and under the same terms, the figure for `O=C1CC[C@H](N2Cc3cc4c(cc3C2=O)OC[C@H](COCc2ccccc2)O4)C(=O)N1` [Compound B12, (S)-3-((S)-2-((benzyloxy)methyl)-6-oxo-2,3,6,8-tetrahydro-7H-[1,4]dioxino[2,3-f]isoindol-7-yl)piperidine-2,6-dione] is 3000 nM; for `O=C1CC[C@H](N2Cc3c(ccc4c3O[C@H](CO)CO4)C2=O)C(=O)N1` [Compound B7, (S)-3-((R)-2-(hydroxymethyl)-7-oxo-2,3,7,9-tetrahydro-8H-[1,4]dioxino[2,3-e]isoindol-8-yl)piperidine-2,6-dione] it is 510 nM; for `O=C1CC[C@H](N2Cc3c(ccc4c3OC[C@H](CO)O4)C2=O)C(=O)N1` [Compound B4, (S)-3-((S)-3-(hydroxymethyl)-7-oxo-2,3,7,9-tetrahydro-8H-[1,4]dioxino[2,3-e]isoindol-8-yl)piperidine-2,6-dione] it is 310 nM. Compound `O=C1CC[C@H](N2Cc3c(ccc4c3O[C@@H](CO)CO4)C2=O)C(=O)N1` [Compound B6, (S)-3-((S)-2-(hydroxymethyl)-7-oxo-2,3,7,9-tetrahydro-8H-[1,4]dioxino[2,3-e]isoindol-8-yl)piperidine-2,6-dione] displayed an IC50 of 540 nM.

In turn, `O=C1CCC(N2C(=O)c3cc4c(cc3C2=O)OC(CO)CO4)C(=O)N1` (stereo not shown) [Compound B15, 7-(2,6-dioxopiperidin-3-yl)-2-(hydroxymethyl)-2,3-dihydro-6H-[1,4]dioxino[2,3-f]isoindole-6,8(7H)-dione] displayed an IC50 of 7890 nM.

Take `O=C1CC[C@H](N2Cc3c(ccc4c3OCC(COCc3ccccc3)O4)C2=O)C(=O)N1` (stereo in doubt) [Compound B1, (S)-3-((S)-3-((benzyloxy)methyl)-7-oxo-2,3,7,9-tetrahydro-8H-[1,4]dioxino[2,3-e]isoindol-8-yl)piperidine-2,6-dione]: the IC50 came to 300 nM. The same measure, in the same setting: for `O=C1CC[C@H](N2Cc3c(ccc4c3OC[C@H](COCc3ccccc3)O4)C2=O)C(=O)N1` [Compound B3, (S)-3-((S)-3-((benzyloxy)methyl)-7-oxo-2,3,7,9-tetrahydro-8H-[1,4]dioxino[2,3-e]isoindol-8-yl)piperidine-2,6-dione] the value was 120 nM. Still for that read-out and setting: for `O=C1CC[C@H](N2Cc3cc4c(cc3C2=O)OC[C@H](CO)O4)C(=O)N1` [Compound B11, (S)-3-((S)-2-(hydroxymethyl)-6-oxo-2,3,6,8-tetrahydro-7H-[1,4]dioxino[2,3-f]isoindol-7-yl)piperidine-2,6-dione] the value was 3100 nM.

With `O=C1CCC(N2Cc3c(ccc4c3OC[C@H](COCc3ccccc3)N4)C2=O)C(=O)N1` (stereo partly drawn) [Compound B5, 3-((S)-3-((benzyloxy)methyl)-7-oxo-3,4,7,9-tetrahydro-[1,4]oxazino[2,3-e]isoindol-8(2H)-yl)piperidine-2,6-dione], the IC50 is 120 nM.

For another assay, the target named is ER (Homo sapiens (Human), UniProt P03372). As to the kind of experiment: In-Cell Western (ICW) ER degradation assay in MCF-7 and T47D cell lines. It counts as cell-based. The following applies: ER level by In-Cell Western, 16 hrs treatment; MCF-7 and T47D described, cell line not given. The procedure:
Subsequently, cells were blocked with Intercept (PBS) Blocking Buffer (Li-COR, Odyssey Blocking Buffer), and were stained with ER (1:500, Cell signaling) primary antibody for overnight at cold room. • Day 4: Remove the buffer, add IRDye 800CW Goat anti-Rabbit IgG Secondary Antibody (1:2000) and CellTag 700 Stain (1:500) in Intercept (PBS) Blocking Buffer. Finally, cell plate is placed in incubator to dry. Image and signal were captured on Odyssey® DLx Imaging System.
In-cell western blot analysis. a. seed cells in black-sided/clear bottom 96- or 384-well plates at 40,000 or 10,000 cells/well, overnight; b. add diluted compounds (final 0.5% DMSO), 16 hours. 16 h later, remove medium, add 100 μL or 25 μL of 3.7-4.0% formaldehyde (PBS:FA=9:1), RT 20 min, no shaking; c. wash with PBS, and permeabilized with 100 μL or 25 μL/well of 1×PBS+0.1% Triton X-100 10 minutes; d. block with 100 μL or 25 μL Licor blocking buffer (Li-Cor), RT 1 h, moderate shaking; d. Add 100 μL or 25 μL of anti-ER (cs-8644, 1:500-1,000)+GAPDH (Millipore MAB374, 1:1000) in Block+0.05% Tween 20. RT 2 h, gentle shaking.
Negative control: cells plus secondary antibodies (no primary antibodies); e. wash ×4 with PBS+0.05-0.1% Tween 20, gentle shaking; f. anti-rabbit-680 and anti-mouse-800 (both 1:1000 in LiCor block+0.05% Tween20, RT 1 h, gentle shaking, no light. LI-COR: 0.2% to reduce background; g. wash ×4 with PBS+0.05% Tween 20, gentle shaking; h. add 100 μL or 25 μL of PBS to each well and read on CLX plate reader. The relative ER percentage in treated cells were obtained by comparing the values of treated wells to those in untreated and DMSO-treated wells as 100%.
With `O=C1CC[C@H](N2Cc3c(ccc4c3OC[C@@H](CN3CCC5(CC3)CCN(c3ccc([C@@H]6c7ccc(O)cc7CC[C@@H]6c6ccccc6)cc3)CC5)O4)C2=O)C(=O)N1` [THP-B370], the DC50 was > 100 nM. The same measure, in the same setting: for `O=C1CC[C@H](N2Cc3c(ccc4c3OC[C@H](CN3CCC5(CC3)CCN(c3ccc([C@@H]6c7ccc(O)cc7CC[C@@H]6c6ccccc6)cc3)CC5)O4)C2=O)C(=O)N1` [THP-B387] the value was > 100 nM; for `O=C1CCC(N2Cc3cc4c(cc3C2=O)OC[C@H](CN2CCC3(CC2)CCN(c2ccc([C@@H]5c6ccc(O)cc6CC[C@@H]5c5ccccc5)cc2)CC3)O4)C(=O)N1` (stereo partly drawn) [THP-B391, 3-((S)-2-((9-(4-((1R,2S)-6-hydroxy-2-phenyl-1,2,3,4-tetrahydronaphthalen-1-yl)phenyl)-3,9-diazaspiro[5.5]undecan-3-yl)methyl)-6-oxo-2,3,6,8-tetrahydro-7H-[1,4]dioxino[2,3-f]isoindol-7-yl)piperidine-2,6-dione], > 100 nM. On the same count and under the same terms, for `O=C1CC[C@H](N2Cc3c(ccc4c3OC[C@@H](CN3CC5(CCN(c6ccc([C@@H]7c8ccc(O)cc8CC[C@@H]7c7ccccc7)cc6)CC5)C3)O4)C2=O)C(=O)N1` [THP-B375] the value was 10 to 100 nM.

The subject of a further assay is T47D cell line. As to the kind of experiment: Cell growth inhibition in T47D cell line. In kind it is cell-based. The following applies: Homo sapiens.
The compound `O=C1CC[C@H](N2Cc3c(ccc4c3OC[C@H](CN3CCC5(CC3)CCN(c3ccc([C@@H]6c7ccc(O)cc7CC[C@@H]6c6ccccc6)cc3)CC5)O4)C2=O)C(=O)N1` [THP-B392] had an IC50 of 1 to 10 nM. The same measure, in the same setting: for `O=C1CC[C@H](N2Cc3c(ccc4c3OC[C@@H](CN3CCC5(CC3)CCN(c3ccc([C@@H]6c7ccc(O)cc7CC[C@@H]6c6ccccc6)cc3)CC5)O4)C2=O)C(=O)N1` [THP-B370] the value was 1 to 10 nM.

`O=C1CCC(N2Cc3cc4c(cc3C2=O)OC[C@H](CN2CCC3(CC2)CCN(c2ccc([C@@H]5c6ccc(O)cc6CC[C@@H]5c5ccccc5)cc2)CC3)O4)C(=O)N1` (stereo partly drawn) [THP-B391, 3-((S)-2-((9-(4-((1R,2S)-6-hydroxy-2-phenyl-1,2,3,4-tetrahydronaphthalen-1-yl)phenyl)-3,9-diazaspiro[5.5]undecan-3-yl)methyl)-6-oxo-2,3,6,8-tetrahydro-7H-[1,4]dioxino[2,3-f]isoindol-7-yl)piperidine-2,6-dione] returned an IC50 of 1 to 10 nM. On to `O=C1CC[C@H](N2Cc3c(ccc4c3OC[C@@H](CN3CC5(CCN(c6ccc([C@@H]7c8ccc(O)cc8CC[C@@H]7c7ccccc7)cc6)CC5)C3)O4)C2=O)C(=O)N1` [THP-B375], for which the IC50 is < 1 nM. On the same count and under the same terms, for `O=C1CC[C@H](N2Cc3c(ccc4c3OC[C@H](CN3CC5(CCN(c6ccc([C@@H]7c8ccc(O)cc8CC[C@@H]7c7ccccc7)cc6)CC5)C3)O4)C2=O)C(=O)N1` [THP-B393] the value was < 1 nM.
